This passage reports IC50 results from paper PMC8184855, “A small molecule inhibitor of Nox2 and Nox4 improves contractile function after ischemia–reperfusion in the mouse heart” (Scientific Reports, 2021).

Molecules are shown by their SMILES.

This test concerns the target T1, Nox4 (Homo sapiens, UniProt Q9NPH5).
T1 sequence (Q9NPH5 1-578): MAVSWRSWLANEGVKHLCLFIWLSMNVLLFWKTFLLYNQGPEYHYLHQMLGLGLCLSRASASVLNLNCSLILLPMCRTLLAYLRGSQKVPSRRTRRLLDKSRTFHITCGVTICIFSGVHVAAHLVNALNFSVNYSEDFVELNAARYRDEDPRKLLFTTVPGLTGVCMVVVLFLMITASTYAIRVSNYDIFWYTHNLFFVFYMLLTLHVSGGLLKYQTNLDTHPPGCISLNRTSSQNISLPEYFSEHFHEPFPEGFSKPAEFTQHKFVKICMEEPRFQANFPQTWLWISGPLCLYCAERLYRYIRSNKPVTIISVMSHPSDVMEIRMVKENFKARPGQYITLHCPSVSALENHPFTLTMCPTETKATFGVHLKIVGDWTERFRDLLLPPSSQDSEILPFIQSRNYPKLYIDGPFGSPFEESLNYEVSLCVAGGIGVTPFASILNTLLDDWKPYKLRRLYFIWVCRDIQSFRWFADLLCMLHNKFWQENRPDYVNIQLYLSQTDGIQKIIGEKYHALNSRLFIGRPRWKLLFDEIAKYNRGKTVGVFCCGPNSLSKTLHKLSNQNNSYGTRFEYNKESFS
Nature of the test: Amplex Red H2O2 assay in CJ HEK […] cells overexpressing Nox4 (found by screen in T-Rex-293 with inducible Nox4); H2O2 counter-screen and DPPH redox control. It is filed as cell-based. On the technique in general: Counterscreens check selectivity or assay interference.

Regarding `COc1cccc(N2CCN(Cc3nc(N)nc(Nc4ccc(C)c(C)c4)n3)CC2)c1` [GLX481304], half-maximal inhibition (IC50) was put at 1250 nM.
